Tests used:
Assay in all cases: Bliss excess, mean over the matrix (fraction); higher = more synergy
[1] = test system: UM-UC-3 (Bladder Carcinoma)
Procedure, shortened: (§1)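 After 24 hours at 37°C and 5% CO2 in 1536-well plates, cells in DMEM/F12 or RPMI plus 10% FBS received two-drug dose matrices for 72 hours. Viability came from CellTiter-Glo 2.0 luminescence and was scaled as inhibition, anchored at 0 by vehicle wells and at 1 by blank wells. Combination Emax is taken as the second-highest inhibition in the matrix, and Bliss excess as the observed combination effect less EA + EB − EA·EB, with EA and EB the single-agent effects.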

[2] = test system: HO-1-N-1 (Oral Cavity Carcinoma)
Procedure, shortened: as §1

[3] = test system: RO82-W-1 (Thyroid Gland Carcinoma)
Procedure, shortened: as §1

[4] = test system: DoTc2-4510 (Cervical Carcinoma)
Procedure, shortened: as §1

[5] = test system: Hs-578-T (Breast Carcinoma)
Procedure, shortened: as §1

[6] = test system: KYSE-520 (Esophageal Squamous Cell Carcinoma)
Procedure, shortened: as §1

[7] = test system: HCC1806 (Breast Carcinoma)
Procedure, shortened: as §1

[8] = test system: LS-180 (Colorectal Carcinoma)
Procedure, shortened: as §1

[9] = test system: DEL (T-Cell Non-Hodgkin's Lymphoma)
Procedure, shortened: as §1

[10] = test system: Ramos-2G6-4C10 (Burkitt's Lymphoma)
Procedure, shortened: as §1

[11] = test system: NCI-H82 (Small Cell Lung Carcinoma)
Procedure, shortened: as §1

[12] = test system: Calu-3 (Lung Adenocarcinoma)
Procedure, shortened: as §1

[13] = test system: B-CPAP (Thyroid Gland Carcinoma)
Procedure, shortened: as §1

[14] = test system: KURAMOCHI (Ovarian Carcinoma)
Procedure, shortened: as §1

[15] = test system: CAL-148 (Breast Carcinoma)
Procedure, shortened: as §1

[16] = test system: ES4 (Ewing's Sarcoma)
Procedure, shortened: as §1

[17] = test system: LNCaP-Clone-FGC (Prostate Carcinoma)
Procedure, shortened: as §1

[18] = test system: ME-1 (Acute Myeloid Leukemia)
Procedure, shortened: as §1

[19] = test system: 42-MG-BA (Glioblastoma)
Procedure, shortened: as §1

[20] = test system: TCCSUP (Bladder Carcinoma)
Procedure, shortened: as §1

| Structure (SMILES) | Bliss excess [1] | Bliss excess [2] | Bliss excess [3] | Bliss excess [4] | Bliss excess [5] | Bliss excess [6] | Bliss excess [7] | Bliss excess [8] | Bliss excess [9] | Bliss excess [10] | Bliss excess [11] | Bliss excess [12] | Bliss excess [13] | Bliss excess [14] | Bliss excess [15] | Bliss excess [16] | Bliss excess [17] | Bliss excess [18] | Bliss excess [19] | Bliss excess [20] |
| --- | --- | --- | --- | --- | --- | --- | --- | --- | --- | --- | --- | --- | --- | --- | --- | --- | --- | --- | --- | --- |
| Cc1cc2ncnn2cc1Nc1ncc2c(n1)n(C1CCOCC1)c(=O)n2C [AZD7648] + CN(C)CCCOc1ccc(-c2ccc3ncc4c(c3c2)n(C2CCOCC2)c(=O)n4C)cn1 [AZD0156] (first compound max 10 µM, 7x7, partner max 1 µM) | 0.014 | 0.0046 | -0.129 | 0.0054 | -0.088 | -0.0068 | 0.0654 | -0.0443 | 0.0956 | 0.0236 | 0.0094 | -0.0252 | -0.0206 | -0.064 | 0.0102 | -0.0163 | 0.0016 | -0.0326 | -0.0313 | -0.011 |
| Cc1cc2ncnn2cc1Nc1ncc2c(n1)n(C1CCOCC1)c(=O)n2C [AZD7648] + C[C@@H]1COCCN1C2=NC(=NC(=C2)C3(CC3)[S@](=N)(=O)C)C4=C5C=CNC5=NC=C4 [AZD6738] (first compound max 10 µM, 7x7, partner max 10 µM) | 0.0223 | 0.0001 | 0.0654 | 0.0178 | -0.0744 | 0.0356 | 0.014 | 0.0003 | 0.0052 | 0.0129 | -0.0596 | 0.0012 | -0.0649 | -0.0229 | 0.0532 | 0.0062 | -0.0069 | -0.0321 | -0.0581 | 0.0311 |
| Cc1cc2ncnn2cc1Nc1ncc2c(n1)n(C1CCOCC1)c(=O)n2C [AZD7648] + O=C(c1cc(Cc2n[nH]c(=O)c3ccccc23)ccc1F)N1CCN(C(=O)C2CC2)CC1 [Olaparib] (first compound max 10 µM, 7x7, partner max 10 µM) | -0.0297 | 0.0099 | -0.0639 | -0.0428 | -0.0325 | -0.0138 | -0.0343 | -0.0896 | 0.0174 | -0.0281 | -0.0382 | -0.0351 | -0.0034 | -0.0418 | -0.0545 | 0.0132 | -0.0049 | -0.004 | 0.0303 | -0.0465 |
| NC1(C(=O)N[C@@H](CCO)c2ccc(Cl)cc2)CCN(c2ncnc3[nH]ccc23)CC1 [Capivasertib] + CC(=O)c1c(C)c2cnc(Nc3ccc(N4CCNCC4)cn3)nc2n(C2CCCC2)c1=O [Palbociclib] (first compound max 10 µM, 7x7, partner max 10 µM) | 0.0504 | 0.026 | -0.0125 | -0.0983 | 0.0324 | -0.0342 | 0.0075 | 0.0189 | 0.0706 | -0.0512 | -0.0229 | 0.0775 | -0.046 | -0.0124 | -0.0215 | 0.074 | 0.0242 | -0.11 | -0.0633 | 0.0372 |
| NC1(C(=O)N[C@@H](CCO)c2ccc(Cl)cc2)CCN(c2ncnc3[nH]ccc23)CC1 [Capivasertib] + CC(C)n1c(=O)n(C)c2cnc3cc(F)c(-c4ccc(OCCCN5CCCCC5)nc4)cc3c21 [AZD1390] (first compound max 10 µM, 7x7, partner max 0.3 µM) | -0.0211 | 0.0055 | -0.0236 | -0.0976 | -0.0363 | -0.0364 | -0.0732 | -0.0332 | 0.0336 | -0.0205 | 0.0005 | -0.0016 | -0.0897 | -0.0085 | -0.0509 | -0.0585 | -0.0681 | -0.0319 | -0.0608 | -0.084 |
| NC1(C(=O)N[C@@H](CCO)c2ccc(Cl)cc2)CCN(c2ncnc3[nH]ccc23)CC1 [Capivasertib] + CCN(CCO)CCCOc1ccc2c(Nc3cc(CC(=O)Nc4cccc(F)c4)[nH]n3)ncnc2c1 [AZD2811] (first compound max 10 µM, 7x7, partner max 1 µM) | -0.0255 | -0.046 | -0.0598 | -0.0749 | -0.036 | -0.0495 | 0.0012 | -0.0053 | -0.0743 | 0.139 | 0.0054 | 0.0092 | -0.0298 | -0.0444 | -0.0142 | 0.0317 | 0.006 | -0.055 | -0.0306 | -0.0397 |
| NC1(C(=O)N[C@@H](CCO)c2ccc(Cl)cc2)CCN(c2ncnc3[nH]ccc23)CC1 [Capivasertib] + COc1nnc2ccc(N3CCC(c4ccc(OCCN5CCN(C)C(=O)[C@H]5C)cc4)CC3)nn12 [AZD5153] (first compound max 10 µM, 7x7, partner max 1 µM) | -0.0158 | 0.0214 | -0.0585 | -0.0084 | 0.06 | -0.0509 | -0.003 | -0.0055 | -0.0363 | 0.0722 | -0.139 | 0.0283 | 0.062 | -0.0158 | 0.0504 | -0.0175 | -0.0071 | -0.0161 | 0.0611 | 0.0311 |
| NC1(C(=O)N[C@@H](CCO)c2ccc(Cl)cc2)CCN(c2ncnc3[nH]ccc23)CC1 [Capivasertib] + C[C@@H]1COCCN1C2=NC(=NC(=C2)C3(CC3)[S@](=N)(=O)C)C4=C5C=CNC5=NC=C4 [AZD6738] (first compound max 10 µM, 7x7, partner max 10 µM) | 0.0085 | -0.0027 | -0.0247 | -0.0192 | -0.0739 | -0.0371 | -0.0333 | -0.159 | 0.0172 | 0.0183 | -0.0279 | -0.0381 | -0.0465 | -0.0376 | 0.0222 | -0.0919 | 0.0099 | -0.0086 | -0.0514 | -0.0312 |
| NC1(C(=O)N[C@@H](CCO)c2ccc(Cl)cc2)CCN(c2ncnc3[nH]ccc23)CC1 [Capivasertib] + Cn1cnc2c(F)c(Nc3ccc(Br)cc3Cl)c(C(=O)NOCCO)cc21 [Selumetinib] (first compound max 10 µM, 7x7, partner max 10 µM) | 0.0946 | 0.105 | -0.0063 | 0.0133 | -0.0194 | -0.042 | 0.0578 | -0.0247 | 0.054 | -0.0166 | -0.131 | 0.0295 | 0.0496 | 0.0079 | 0.0597 | -0.0219 | -0.0143 | -0.0089 | 0.0697 | -0.0385 |
| Cc1nc(Nc2ncc(C(=O)Nc3c(C)cccc3Cl)s2)cc(N2CCN(CCO)CC2)n1 [Dasatinib] + CC(=O)Nc1cccc(-n2c(=O)n(C3CC3)c(=O)c3c(Nc4ccc(I)cc4F)n(C)c(=O)c(C)c32)c1 [Trametinib] (first compound max 2 µM, 7x7, partner max 1 µM) | 0.112 | 0.0676 | -0.0202 | -0.0338 | -0.0526 | -0.0902 | -0.0461 | 0.0883 | 0.0076 | 0 | -0.0149 | 0.0074 | -0.0158 | 0.0706 | -0.0252 | -0.0951 | -0.0361 | 0.0126 | -0.023 | -0.0443 |
| COc1cccc2c1C(=O)c1c(O)c3c(c(O)c1C2=O)C[C@@](O)(C(=O)CO)C[C@@H]3O[C@H]1C[C@H](N)[C@H](O)[C@H](C)O1 [Doxorubicin] + Cc1cc2ncnn2cc1Nc1ncc2c(n1)n(C1CCOCC1)c(=O)n2C [AZD7648] (first compound max 1 µM, 7x7, partner max 10 µM) | 0.0688 | 0.0808 | -0.0346 | 0.0248 | 0.0412 | -0.0086 | 0.0499 | 0.0033 | 0.0935 | 0.0786 | 0.0827 | -0.0006 | 0.106 | 0.0251 | 0.165 | 0.0761 | 0.0417 | 0.027 | 0.0271 | 0.0282 |
| COc1cc2ncnc(Nc3ccc(F)c(Cl)c3)c2cc1OCCCN1CCOCC1 [Gefitinib] + CC(C)n1c(=O)n(C)c2cnc3cc(F)c(-c4ccc(OCCCN5CCCCC5)nc4)cc3c21 [AZD1390] (first compound max 10 µM, 7x7, partner max 0.3 µM) | -0.0583 | -0.0506 | -0.0586 | -0.0601 | -0.0685 | -0.043 | -0.0425 | -0.0623 | -0.0317 | -0.0626 | -0.0088 | -0.048 | -0.0752 | -0.0401 | -0.0344 | -0.0177 | -0.0491 | -0.0238 | -0.0891 | -0.0593 |
| CS(=O)(=O)CCNCc1ccc(-c2ccc3ncnc(Nc4ccc(OCc5cccc(F)c5)c(Cl)c4)c3c2)o1 [Lapatinib] + C[C@@H](Oc1cc(-c2cnn(C3CCNCC3)c2)cnc1N)c1c(Cl)ccc(F)c1Cl [Crizotinib] (first compound max 10 µM, 7x7, partner max 10 µM) | -0.0739 | -0.0493 | -0.0392 | -0.0321 | -0.0984 | -0.0352 | -0.0266 | 0.0173 | 0.0074 | -0.113 | -0.0273 | 0.0052 | -0.0393 | -0.0794 | -0.0105 | -0.0261 | -0.0575 | -0.0344 | -0.0709 | -0.0611 |
| CC(=O)c1c(C)c2cnc(Nc3ccc(N4CCNCC4)cn3)nc2n(C2CCCC2)c1=O [Palbociclib] + CC1(C)CCC(CN2CCN(c3ccc(C(=O)NS(=O)(=O)c4ccc(NCC5CCOCC5)c([N+](=O)[O-])c4)c(Oc4cnc5[nH]ccc5c4)c3)CC2)=C(c2ccc(Cl)cc2)C1 [Venetoclax] (first compound max 10 µM, 7x7, partner max 1 µM) | -0.0219 | -0.0322 | -0.0825 | -0.058 | -0.0447 | -0.0442 | -0.0213 | -0.0124 | 0.027 | -0.106 | -0.0648 | -0.0252 | 0.0002 | -0.0418 | -0.0161 | -0.0334 | 0.0267 | -0.0012 | -0.0093 | -0.0508 |
| CC(=O)c1c(C)c2cnc(Nc3ccc(N4CCNCC4)cn3)nc2n(C2CCCC2)c1=O [Palbociclib] + Cc1c2c(nn1C)CSCc1cc(n(C)n1)CSc1cc(c3ccccc3c1)OCCCc1c(C(=O)O)n(C)c3c-2c(Cl)ccc13 [AZD5991] (first compound max 10 µM, 7x7, partner max 1 µM) | -0.0212 | -0.0554 | -0.0283 | -0.0143 | 0.0238 | -0.0686 | -0.0164 | -0.0515 | 0.0007 | -0.0226 | -0.0534 | -0.0039 | -0.0722 | 0.0188 | -0.0063 | -0.046 | 0.0049 | -0.0141 | -0.0391 | -0.0395 |
